What was measured:
[1] = system: giant foxtail; assay: Test B pre/postemergence giant foxtail; format: in vivo, Setaria faberii
Summary of the method: (§1)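 Response is a visual 0-to-10 score relative to untreated plants, where 0 means no effect and 10 means complete control, taken twelve to sixteen days after application. Treatments went onto soil at planting and onto foliage of 1- to 4-leaf plants, using a surfactant-containing non-phytotoxic solvent.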

[2] = system: morningglory; assay: Test B pre/postemergence morningglory; format: in vivo, Ipomoea hederacea
Summary of the method: as §1

[3] = system: pigweed; assay: Test B pre/postemergence pigweed; format: in vivo, Amaranthus retroflexus
Summary of the method: as §1

[4] = system: rape; assay: Test B pre/postemergence rape; format: in vivo, Brassica napus
Summary of the method: as §1

[5] = Preemergence, Rate 62 g/ha, scale of 0 to 10 where 0 is no effect and 10 is complete control
[6] = Preemergence, Rate 250 g/ha, scale of 0 to 10 where 0 is no effect and 10 is complete control
[7] = Preemergence, Rate 500 g/ha, scale of 0 to 10 where 0 is no effect and 10 is complete control
[8] = Rate 62 g/ha, Postemergence, scale of 0 to 10 where 0 is no effect and 10 is complete control
[9] = Rate 125 g/ha, Postemergence, scale 0 to 10
[10] = Rate 125 g/ha, Preemergence, scale of 0 to 10 where 0 is no effect and 10 is complete control
[11] = Rate 500 g/ha, Postemergence, scale 0 to 10, 0 no effect, 10 complete control
[12] = Postemergence, Rate 125 g/ha, scale 0 to 10, 0 is no effect, 10 is complete control
[13] = Postemergence, Rate 250 g/ha, scale 0 to 10, 0 is no effect, 10 is complete control
[14] = Postemergence, Rate 1000 g/ha, scale 0 to 10 (0 no effect, 10 complete control)
[15] = Rate 1000 g/ha, Preemergence, scale 0 to 10 (0 no effect, 10 complete control)

`COc1cc(C)cc(C)c1-n1c(=O)on(C(=O)N(c2ccc(F)cc2)C(C)C)c1=O` [Compound 222] was tested, and the “Giant foxtail plant response rating” value [1, 5] was 0, the “Giant foxtail plant response rating” value [1, 6] was 7 and the “Plant response rating, Giant foxtail” value [1, 7] was 9. For the same compound, the “Giant foxtail plant response rating” value [1, 8] was 0, the “Giant foxtail plant response rating” value [1, 9] was 0 and the “Giant foxtail plant response rating” value [1, 10] was 5. For the same compound, the “Plant response rating (0 to 10; 0 is no effect, 10 is complete control), Giant foxtail” value ([1]; Rate 250 g/ha, Postemergence) was 0, the “Giant foxtail plant response rating” value [1, 11] was 1 and the “Morningglory plant response rating” value [2, 5] was 0. For the same compound, the “Morningglory plant response rating” value [2, 6] was 0, the “Plant response rating, Morningglory” value [2, 7] was 0 and the “Morningglory plant response rating” value [2, 8] was 1. For the same compound, the “Morningglory plant response rating” value [2, 9] was 1, the “Morningglory plant response rating” value [2, 10] was 0 and the “Plant response rating (0 to 10; 0 is no effect, 10 is complete control), Morningglory” value ([2]; Rate 250 g/ha, Postemergence) was 3. For the same compound, the “Morningglory plant response rating” value [2, 11] was 3, the “Redroot pigweed plant response rating” value [3, 5] was 0 and the “Redroot pigweed plant response rating” value [3, 6] was 0. The “Plant response rating, Redroot pigweed” value [3, 7] was 4, the “Redroot pigweed plant response rating” value [3, 8] was 0 and the “Redroot pigweed plant response rating” value [3, 9] was 0. The “Redroot pigweed plant response rating” value [3, 10] was 0, the “Plant response rating (0 to 10; 0 is no effect, 10 is complete control), Redroot pigweed” value ([3]; Rate 250 g/ha, Postemergence) was 0 and the “Redroot pigweed plant response rating” value [3, 11] was 0. The “Rape plant response rating” value [4, 5] was 0, the “Rape plant response rating” value [4, 6] was 0 and the “Plant response rating, Rape” value [4, 7] was 0. For the same compound, the “Rape plant response rating” value [4, 8] was 0, the “Rape plant response rating” value [4, 9] was 0 and the “Rape plant response rating” value [4, 10] was 0. For the same compound, the “Plant response rating (0 to 10; 0 is no effect, 10 is complete control), Rape” value ([4]; Rate 250 g/ha, Postemergence) was 0 and the “Rape plant response rating” value [4, 11] was 0.

With `CCOC(=O)C(C)N(C(=O)n1oc(=O)n(C)c1=O)c1ccc(F)cc1` (stereo not shown) [Compound 365] the “Plant response rating, Giant foxtail” value [1, 12] was 0, the “Plant response rating, Giant foxtail” value [1, 13] was 0 and the “Giant foxtail plant response rating” value [1, 14] was 0. For the same compound, the “Giant foxtail plant response rating (0 to 10 scale)” value ([1]; Preemergence, Rate 125 g/ha) was 0, the “Giant foxtail plant response rating” value [1, 6] was 0 and the “Giant foxtail plant response rating” value [1, 7] was 3. The “Plant response rating, Giant foxtail” value [1, 11] was 0, the “Plant response rating, Giant foxtail” value [1, 15] was 9 and the “Plant response rating, Morningglory” value [2, 12] was 0. For the same compound, the “Plant response rating, Morningglory” value [2, 13] was 0, the “Morningglory plant response rating” value [2, 14] was 0 and the “Morningglory plant response rating (0 to 10 scale)” value ([2]; Preemergence, Rate 125 g/ha) was 0. For the same compound, the “Morningglory plant response rating” value [2, 6] was 0, the “Morningglory plant response rating” value [2, 7] was 0 and the “Plant response rating, Morningglory” value [2, 11] was 0. For the same compound, the “Plant response rating, Morningglory” value [2, 15] was 0, the “Plant response rating, Redroot pigweed” value [3, 12] was 0 and the “Plant response rating, Redroot pigweed” value [3, 13] was 0. The “Redroot pigweed plant response rating” value [3, 14] was 0, the “Redroot pigweed plant response rating (0 to 10 scale)” value ([3]; Preemergence, Rate 125 g/ha) was 0 and the “Redroot pigweed plant response rating” value [3, 6] was 0. The “Redroot pigweed plant response rating” value [3, 7] was 0, the “Plant response rating, Redroot pigweed” value [3, 11] was 0 and the “Plant response rating, Redroot pigweed” value [3, 15] was 0. For the same compound, the “Plant response rating, Rape” value [4, 12] was 0, the “Plant response rating, Rape” value [4, 13] was 0 and the “Rape plant response rating” value [4, 14] was 0. The “Rape plant response rating (0 to 10 scale)” value ([4]; Preemergence, Rate 125 g/ha) was 0, the “Rape plant response rating” value [4, 6] was 0 and the “Rape plant response rating” value [4, 7] was 0. For the same compound, the “Plant response rating, Rape” value [4, 11] was 0 and the “Plant response rating, Rape” value [4, 15] was 0.
